Experimental data as given in patent US8198447B2, “Fused tricyclic compound having aldose reductase inhibitory activity” (National University Corporation University of Toyama, priority 2007, dated 2012).

Target: Aldose reductase II (Homo sapiens, UniProt P15121)
Assay: Aldose reductase inhibitory activity (NADPH decrease at 340 nm, DL-glyceraldehyde substrate)
Type: biochemical
Details: pH 6.2, 100 mM DL-glyceraldehyde, 1.5 mM NADPH
Method: A reaction solution containing a 200 mM of a phosphate buffer solution (pH 6.2), 1.5 mM of reduced nicotinamide adenine dinucleotide phosphate (NADPH), 1 mg/ml of bovine serum albumin, a test compound, and 100 mM of DL-glyceraldehyde as a substrate was prepared. Aldose reductase II (5.1×10^−1 unit/ml) was added to the solution to initiate the reaction, and the amount of NADPH reduced by the reaction was measured at an absorption wavelength of 340 nm using a spectrophotometer.

Point of comparison: `O=C(O)Cn1c2c(c3ccccc31)CCN(C(=O)c1ccc(F)cc1F)C2=O` [Compound 49, [2-(2,4-Difluorobenzoyl)-1-oxo-1,2,3,4-tetrahydro-β-carbolin-9-yl]acetic acid], IC50 45.3 µM. Against it:
- CC(C)(C)c1ccc2c(c1)c1c(n2CC(=O)O)C(=O)SCC1 [Compound 59, (6-tert-Butyl-1-oxo-3,4-dihydro-1H-2-thia-9-azafluoren-9-yl)acetic acid] — 32-fold lower, 1.4 µM
- Cc1cc(C)c2c3c(n(CC(=O)O)c2c1)C(=O)SCC3 [Compound 63, (5,7-Dimethyl-1-oxo-3,4-dihydro-1H-2-thia-9-azafluoren-9-yl)acetic acid] — 7.7-fold lower, 5.9 µM
- COc1ccc(C(=O)N2CCc3c(n(CC(=O)O)c4ccccc34)C2=O)cc1 [Compound 48] — within 1.5-fold, 35.8 µM
- O=C(O)Cn1c2c(c3cc(Cl)ccc31)CCN(Cc1ccccc1)C2=S [Compound 27, (2-Benzyl-6-chloro-1-thioxo-1,2,3,4-tetrahydro-β-carbolin-9-yl)acetic acid] — 9.1-fold lower, 5 µM
- O=C(O)Cn1c2c(c3ccccc31)CCN(c1ccccc1)C2=S [Compound 33, (2-Phenyl-1-thioxo-1,2,3,4-tetrahydro-β-carbolin-9-yl)acetic acid] — within 1.5-fold, 36.3 µM
- O=C(O)Cn1c2c(c3cc(F)ccc31)CCN(Cc1ccccc1)C2=O [Compound 22, (2-Benzyl-6-fluoro-1-oxo-1,2,3,4-tetrahydro-β-carbolin-9-yl)acetic acid] — within 1.5-fold, 51.5 µM
- O=C(O)Cn1c2c(c3ccccc31)CCN(Cc1cccs1)C2=S [Compound 36, [2-(2-Thienylmethyl)-1-thioxo-1,2,3,4-tetrahydro-β-carbolin-9-yl]acetic acid] — 6-fold lower, 7.6 µM
- O=C(O)Cn1c2c(c3cc(C4CCCCC4)ccc31)CCSC2=O [Compound 62, (6-Cyclohexyl-1-oxo-3,4-dihydro-1H-2-thia-9-azafluoren-9-yl)acetic acid] — 8.1-fold lower, 5.6 µM
- O=C(O)Cn1c2c(c3cc4c(cc31)CCCC4)CCSC2=O [Compound 65, (1-Oxo-3,4,6,7,8,9-hexahydro-1H-2-thia-11-azabenzo[b]fluoren-11-yl)acetic acid] — 13-fold lower, 3.4 µM
- O=C(O)Cn1c2c(c3ccccc31)CCN(CC1CCCCC1)C2=S [Compound 34, (2-Cyclohexylmethyl-1-thioxo-1,2,3,4-tetrahydro-β-carbolin-9-yl)acetic acid] — 6.3-fold lower, 7.2 µM
- O=C(O)Cn1c2c(c3ccccc31)CCN(C(=O)c1ccc(Br)cc1)C2=O [Compound 47, [2-(4-Bromobenzoyl)-1-oxo-1,2,3,4-tetrahydro-β-carbolin-9-yl]acetic acid] — within 1.5-fold, 34.6 µM
- O=C(O)Cn1c2c(c3cc(Cl)ccc31)CCOC2=O [Compound 30, (6-Chloro-1-oxo-3,4-dihydro-1H-pyrano[3,4-b]indol-9-yl)acetic acid] — 3.7-fold lower, 12.4 µM
- O=C(O)Cn1c2c(c3cc(F)ccc31)CCN(Cc1ccccc1F)C2=O [Compound 25, [2-(2-Fluorophenylmethyl)-6-fluoro-1-oxo-1,2,3,4-tetrahydro-β-carbolin-9-yl]acetic acid] — within 1.5-fold, 48.6 µM
- O=C(O)Cn1c2c(c3c(F)cc(F)cc31)CCN(Cc1ccc(Br)cc1F)C2=S [Compound 39] — 2.1-fold lower, 21.1 µM
- O=C(O)Cn1c2c(c3c(Cl)cccc31)CCSC2=O [Compound 64, (5-Chloro-1-oxo-3,4-dihydro-1H-2-thia-9-azafluoren-9-yl)acetic acid] — 13-fold lower, 3.6 µM
- O=C(O)Cn1c2c(c3cc(Cl)ccc31)CCSC2=O [Compound 56, (6-chloro-1-oxo-3,4-dihydro-1H-2-thia-9-azafluoren-9-yl)acetic acid] — 41-fold lower, 1.1 µM
- O=C(O)Cn1c2c(c3cc(Br)ccc31)CCN(Cc1ccccc1)C2=S [Compound 32, (2-Benzyl-6-bromo-1-thioxo-1,2,3,4-tetrahydro-β-carbolin-9-yl)acetic acid] — 7.3-fold lower, 6.2 µM
- O=C(O)Cn1c2c(c3ccccc31)CCN(Cc1ccco1)C2=S [Compound 35, [2-(2-Furanylmethyl)-1-thioxo-1,2,3,4-tetrahydro-β-carbolin-9-yl]acetic acid] — 2.8-fold lower, 16.3 µM
- O=C(O)Cn1c2c(c3ccc(Cl)cc31)CCN(Cc1ccccc1)C2=S [Compound 38, (2-Benzyl-7-chloro-1-thioxo-1,2,3,4-tetrahydro-β-carbolin-9-yl)acetic acid] — 12-fold lower, 3.7 µM
- O=C(O)Cn1c2c(c3ccccc31)CCN(C(=O)c1cc(F)c(F)c(F)c1)C2=O [Compound 52, [2-(3,4,5-Trifluorobenzoyl)-1-oxo-1,2,3,4-tetrahydro-β-carbolin-9-yl]acetic acid] — within 1.5-fold, 55.3 µM
- O=C(O)Cn1c2c(c3ccccc31)CCN(Cc1ccccc1)C2=S [Compound 26, (2-Benzyl-1-thioxo-1,2,3,4-tetrahydro-β-carbolin-9-yl)acetic acid] — 11-fold lower, 4.2 µM
- O=C(O)Cn1c2c(c3cc(Cc4ccccc4)ccc31)CCSC2=O [Compound 60, (6-Benzyl-1-oxo-3,4-dihydro-1H-2-thia-9-azafluoren-9-yl)acetic acid] — 13-fold lower, 3.6 µM
- O=C(O)Cn1c2c(c3cc(Cl)ccc31)CCOC2=S [Compound 31, (6-chloro-1-thioxo-3,4-dihydro-1H-pyrano[3,4-b]indol-9-yl) acetic acid] — 4.1-fold lower, 11.1 µM
- O=C(O)Cn1c2c(c3ccccc31)CCN(C(=O)c1cc(O)c(O)c(O)c1)C2=O [Compound 54, [2-(3,4,5-Trihydroxybenzoyl)-1-oxo-1,2,3,4-tetrahydro-β-carbolin-9-yl]acetic acid] — within 1.5-fold, 48 µM
- COc1ccc2c(c1)c1c(n2CC(=O)O)C(=O)SCC1 [Compound 61, (6-Methoxy-1-oxo-3,4-dihydro-1H-2-thia-9-azafluoren-9-yl)acetic acid] — 17-fold lower, 2.6 µM
- O=C(O)Cn1c2c(c3ccccc31)CCN(C(=O)c1cc(F)cc(F)c1)C2=O [Compound 50, [2-(3.5-Difluorobenzoyl)-1-oxo-1,2,3,4-tetrahydro-β-carbolin-9-yl]acetic acid] — within 1.5-fold, 34.5 µM
- O=C(O)Cn1c2c(c3ccccc31)CCN(C(=O)c1ccc(F)cc1)C2=O [Compound 46, [2-(4-fluorobenzoyl)-1-oxo-1,2,3,4-tetrahydro-β-carbolin-9-yl)acetic acid] — 2.1-fold lower, 21.7 µM
- O=C(O)Cn1c2c(c3ccccc31)CCSC2=O [Compound 57, (1-Oxo-3,4-dihydro-1H-2-thia-9-azafluoren-9-yl)acetic acid] — 16-fold lower, 2.8 µM
- O=C(O)Cn1c2c(c3cc(O)ccc31)CCN(Cc1ccccc1)C2=S [Compound 40, (2-Benzyl-6-hydroxy-1-thioxo-1,2,3,4-tetrahydro-β-carbolin-9-yl)acetic acid] — 9.4-fold lower, 4.8 µM
- O=C(O)Cn1c2c(c3ccccc31)CCN(C(=O)c1ccc(Br)cc1F)C2=O [Compound 51, [2-(2-Fluoro-4-bromobenzoyl)-1-oxo-1,2,3,4-tetrahydro-β-carbolin-9-yl]acetic acid] — 1.5-fold higher, 68.3 µM
- O=C(O)Cn1c2c(c3ccccc31)CCN(C(=O)c1ccccc1)C2=O [Compound 55, (2-Benzoyl-1-oxo-1,2,3,4-tetrahydro-β-carbolin-9-yl)acetic acid] — within 1.5-fold, 53.1 µM
- Cc1ccc2c(c1)c1c(n2CC(=O)O)C(=O)SCC1 [Compound 58, (6-Methyl-1-oxo-3,4-dihydro-1H-2-thia-9-azafluoren-9-yl)acetic acid] — 28-fold lower, 1.6 µM
- O=C(O)COc1ccc2c(c1)c1c(n2CC(=O)O)C(=S)N(Cc2ccccc2)CC1 [Compound 42, (2-Benzyl-6-carboxymethoxy-1-thioxo-1,2,3,4-tetrahydro-β-carbolin-9-yl)acetic acid] — 17-fold lower, 2.6 µM
- COc1cc(C(=O)N2CCc3c(n(CC(=O)O)c4ccccc34)C2=O)cc(OC)c1OC [Compound 53, [2-(3,4,5-Trimetoxybenzoyl)-1-oxo-1,2,3,4-tetrahydro-β-carbolin-9-yl]acetic acid] — within 1.5-fold, 46.8 µM
- O=C(O)Cn1c2c(c3ccc(Cl)cc31)CCN(Cc1ccc(Br)cc1F)C2=S [Compound 37] — 1.7-fold lower, 27.4 µM
- CC(C)(C)OC(=O)Cn1c2c(c3cc(F)ccc31)CCN(Cc1ccccc1)C2=S [Compound 23, (2-benzyl-6-fluoro-1-thioxo-1,2,3,4-tetrahydro-β-carbolin-9-yl)acetic acid tert-butyl ester] — 8.1-fold lower, 5.6 µM
- COc1ccc2c(c1)c1c(n2CC(=O)O)C(=S)N(Cc2ccccc2)CC1 [Compound 29, (2-Benzyl-6-methoxy-1-thioxo-1,2,3,4-tetrahydro-β-carbolin-9-yl)acetic acid] — 7.9-fold lower, 5.7 µM
- O=C(O)Cn1c2c(c3c4c(ccc31)CCCC4)CCSC2=O [Compound 66, (8-Oxo-1,3,4,8,10,11-hexahydro-2H-9-thia-7-azabenzo[c]fluoren-7-yl)acetic acid] — 45-fold lower, 1 µM

Test system: mouse leukemia adriamycin sensitive strain P388/S
Assay: Cancer cell sensitivity test (MTT)
Type: cell-based
Details: Mus musculus; P388/S cells, test compound 25 μM, 44 hours, MTT-formazan at 540 nm; read-out: INHIBITORY RATE (%)
Method: Cells of mouse leukemia adriamycin sensitive strain P388/S were cultured in an RPMI1640 culture medium (5% fetal bovine serum, […] 2-mercaptoethanol, 30 μM kanamycin) under conditions of 37° C. and 5% CO2, and used for a compound sensitivity test.
The cell suspension (1.35×10^4 cells/ml) was added to a 96 well plate, 100 μl per well.
After culturing under the conditions of 37° C. and 5% CO2 for 16 hours, a solution of the test compound dissolved in DMSO to a concentration of 25 μM was added, followed by continuation of culture for a further 44 hours, while only DMSO was added to a control to continue the culture.
After culturing, […] (PBS, pH 7.4), was added in an amount of 25 μl/well, followed by incubation for four hours to produce MTT-formazan.
After removing supernatant by aspiration, 200 μl of DMSO was added and the absorbance of MTT-formazan at 540 nm was measured.

Point of comparison: `O=C(O)Cn1c2c(c3ccccc31)CCN(Cc1ccccc1)C2=S` [Compound 26, (2-Benzyl-1-thioxo-1,2,3,4-tetrahydro-β-carbolin-9-yl)acetic acid], inhibition at 25 µM 88.1%. Against it:
- CCOC(=O)Cn1c2c(c3cc(F)ccc31)CCN(Cc1ccccc1)C2=O [Compound 22a, (2-Benzyl-6-fluoro-1-oxo-1,2,3,4-tetrahydro-β-carbolin-9-yl)acetic acid ethyl ester] — lower, 34.5%
- O=C(O)Cn1c2c(c3cc(Cl)ccc31)CCOC2=O [Compound 30, (6-Chloro-1-oxo-3,4-dihydro-1H-pyrano[3,4-b]indol-9-yl)acetic acid] — lower, 31.1%
- O=C(O)Cn1c2c(c3ccccc31)CCN(C(=O)c1cc(F)c(F)c(F)c1)C2=O [Compound 52, [2-(3,4,5-Trifluorobenzoyl)-1-oxo-1,2,3,4-tetrahydro-β-carbolin-9-yl]acetic acid] — lower, 34.7%

Same assay, conditions: P388/S cells, test compound 25 μM, 44 hours, MTT-formazan at 540 nm

For `CC(C)(C)OC(=O)Cn1c2c(c3cc(F)ccc31)CCN(Cc1ccccc1)C2=S` [Compound 23, (2-benzyl-6-fluoro-1-thioxo-1,2,3,4-tetrahydro-β-carbolin-9-yl)acetic acid tert-butyl ester], the “INHIBITORY RATE (%)” value was 92.9%.
